Like-named read-outs stand apart in the source and are kept apart here. Blank lines part the entries; values can stand above or below the molecule they belong to.
Tests used:
[1] = test system: Key Broadleaf Weed and Crop Species; assay: Post-emergent Test II herbicidal activity (Table 15); assay type: in vivo; conditions: post-emergence, 336 h, 14 d; for pest or weed control at 35 g/ha: 35 g ai/ha; for pest or weed control at 70 g/ha: 70 g ai/ha; for pest or weed control at 140 g/ha: 140 g ai/ha
Outline: (§1)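 Plants at first-second true leaf stage, grown 7-21 d in greenhouse (~15 h photoperiod, 23-29 °C day), were track-sprayed at 187 L/ha with compound in acetone/DMSO/water/isopropanol/crop oil/Triton X-155 at a high rate plus 1/2× to 1/16× dilutions. Injury scored visually after 14 d versus untreated plants, 0 (none) to 100% (complete kill).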

[2] = test system: Key Grass and Sedge Weeds as well as Grass Crops; assay: Post-emergent Test II herbicidal activity (Table 16); assay type: in vivo; conditions: post-emergence, 336 h; for pest or weed control at 35 g/ha: 35 g ai/ha; for pest or weed control at 70 g/ha: 70 g ai/ha; for pest or weed control at 140 g/ha: 140 g ai/ha
Outline: as §1

[3] = Abutilon theophrasti, velvetleaf (Abutilon theophrasti), read-out: Visual Growth Reduction (%) 14 Days After Application, ABUTH
[4] = Amaranthus retroflexus, redroot pigweed (Amaranthus retroflexus), read-out: Visual Growth Reduction (%) 14 Days After Application, AMARE
[5] = Brassica napus, oilseed rape, canola (Brassica napus), read-out: Visual Growth Reduction (%) 14 Days After Application, BRSNN
[6] = Chenopodium album, lambsquarters (Chenopodium album), read-out: Visual Growth Reduction (%) 14 Days After Application, CHEAL
[7] = Euphorbia heterophylla, wild poinsettia (Euphorbia heterophylla), read-out: Visual Growth Reduction (%) 14 Days After Application, EPHHL
[8] = Helianthus annuus, sunflower (Helianthus annuus), read-out: Visual Growth Reduction (%) 14 Days After Application, HELAN
[9] = Cyperus esculentus, yellow nutsedge (Cyperus esculentus), 14 days after application, read-out: Visual Growth Reduction (%) 14 Days After Application CYPES
[10] = Echinochloa crus-galli, barnyardgrass (Echinochloa crus-galli), 14 days after application, read-out: Visual Growth Reduction (%) 14 Days After Application ECHCG
[11] = Oryza sativa, rice (Oryza sativa), 14 days after application, read-out: Visual Growth Reduction (%) 14 Days After Application ORYSA
[12] = Setaria faberi, giant foxtail (Setaria faberi), 14 days after application, read-out: Visual Growth Reduction (%) 14 Days After Application SETFA
[13] = Triticum aestivum, wheat, spring (Triticum aestivum), 14 days after application, read-out: Visual Growth Reduction (%) 14 Days After Application TRZAS
[14] = Zea mays, maize, corn (Zea mays), 14 days after application, read-out: Visual Growth Reduction (%) 14 Days After Application ZEAMX

melting point: 159 to 165 °C
Structure (SMILES): Cc1c(-c2ccc3sccc3c2)nc(C(=O)O)c(Cl)c1N [Compound 3.07]
pest or weed control at 35 g/ha [1, 3]: 0 to 29% | pest or weed control at 70 g/ha [1, 3]: 0 to 29% | pest or weed control at 140 g/ha [1, 3]: 0 to 29% | pest or weed control at 35 g/ha [1, 4]: 0 to 29% | pest or weed control at 70 g/ha [1, 4]: 60 to 74% | pest or weed control at 140 g/ha [1, 4]: 75 to 84% | pest or weed control at 35 g/ha [1, 5]: 45 to 59% | pest or weed control at 70 g/ha [1, 5]: 60 to 74% | pest or weed control at 140 g/ha [1, 5]: 60 to 74% | pest or weed control at 35 g/ha [1, 6]: 0 to 29% | pest or weed control at 70 g/ha [1, 6]: 0 to 29% | pest or weed control at 140 g/ha [1, 6]: 75 to 84% | pest or weed control at 35 g/ha [1, 7]: 0 to 29% | pest or weed control at 70 g/ha [1, 7]: 0 to 29% | pest or weed control at 140 g/ha [1, 7]: 0 to 29% | pest or weed control at 35 g/ha [1, 8]: 85 to 94% | pest or weed control at 70 g/ha [1, 8]: 85 to 94% | pest or weed control at 140 g/ha [1, 8]: 85 to 94% | pest or weed control at 35 g/ha ([2]; Cyperus esculentus, yellow nutsedge (Cyperus esculentus), 14 d, read-out: Visual Growth Reduction (%) 14 Days After Application, CYPES): 0 to 29% | pest or weed control at 70 g/ha [2, 9]: 0 to 29% | pest or weed control at 140 g/ha [2, 9]: 0 to 29% | pest or weed control at 35 g/ha ([2]; Echinochloa crus-galli, barnyardgrass (Echinochloa crus-galli), 14 d, read-out: Visual Growth Reduction (%) 14 Days After Application, ECHCG): 0 to 29% | pest or weed control at 70 g/ha [2, 10]: 0 to 29% | pest or weed control at 140 g/ha [2, 10]: 0 to 29% | pest or weed control at 35 g/ha ([2]; Oryza sativa, rice (Oryza sativa), 14 d, read-out: Visual Growth Reduction (%) 14 Days After Application, ORYSA): 0 to 29% | pest or weed control at 70 g/ha [2, 11]: 0 to 29% | pest or weed control at 140 g/ha [2, 11]: 0 to 29% | pest or weed control at 35 g/ha ([2]; Setaria faberi, giant foxtail (Setaria faberi), 14 d, read-out: Visual Growth Reduction (%) 14 Days After Application, SETFA): 0 to 29% | pest or weed control at 70 g/ha [2, 12]: 0 to 29% | pest or weed control at 140 g/ha [2, 12]: 0 to 29% | pest or weed control at 35 g/ha ([2]; Triticum aestivum, wheat, spring (Triticum aestivum), 14 d, read-out: Visual Growth Reduction (%) 14 Days After Application, TRZAS): 0 to 29% | pest or weed control at 70 g/ha [2, 13]: 0 to 29% | pest or weed control at 140 g/ha [2, 13]: 0 to 29% | pest or weed control at 35 g/ha ([2]; Zea mays, maize, corn (Zea mays), 14 d, read-out: Visual Growth Reduction (%) 14 Days After Application, ZEAMX): 0 to 29% | pest or weed control at 70 g/ha [2, 14]: 0 to 29% | pest or weed control at 140 g/ha [2, 14]: 0 to 29%

melting point: 125 to 127 °C
Structure (SMILES): COC(=O)c1nc(-c2ccc3sccc3c2)nc(N)c1OC [Compound 3.08]
pest or weed control at 35 g/ha [1, 3]: 0 to 29% | pest or weed control at 70 g/ha [1, 3]: 30 to 44% | pest or weed control at 140 g/ha [1, 3]: 30 to 44% | pest or weed control at 35 g/ha [1, 4]: 0 to 29% | pest or weed control at 70 g/ha [1, 4]: 30 to 44% | pest or weed control at 140 g/ha [1, 4]: 60 to 74% | pest or weed control at 35 g/ha [1, 5]: 0 to 29% | pest or weed control at 70 g/ha [1, 5]: 0 to 29% | pest or weed control at 140 g/ha [1, 5]: 30 to 44% | pest or weed control at 35 g/ha [1, 6]: 85 to 94% | pest or weed control at 70 g/ha [1, 6]: 85 to 94% | pest or weed control at 140 g/ha [1, 6]: 85 to 94% | pest or weed control at 35 g/ha [1, 7]: 60 to 74% | pest or weed control at 70 g/ha [1, 7]: 75 to 84% | pest or weed control at 140 g/ha [1, 7]: 85 to 94% | pest or weed control at 35 g/ha [1, 8]: 60 to 74% | pest or weed control at 70 g/ha [1, 8]: 75 to 84% | pest or weed control at 140 g/ha [1, 8]: 85 to 94% | pest or weed control at 35 g/ha [2, 9]: 0 to 29% | pest or weed control at 70 g/ha [2, 9]: 0 to 29% | pest or weed control at 140 g/ha [2, 9]: 30 to 44% | pest or weed control at 35 g/ha [2, 10]: 0 to 29% | pest or weed control at 70 g/ha [2, 10]: 0 to 29% | pest or weed control at 140 g/ha [2, 10]: 75 to 84% | pest or weed control at 35 g/ha [2, 11]: 0 to 29% | pest or weed control at 70 g/ha [2, 11]: 0 to 29% | pest or weed control at 140 g/ha [2, 11]: 0 to 29% | pest or weed control at 35 g/ha [2, 12]: 0 to 29% | pest or weed control at 70 g/ha [2, 12]: 0 to 29% | pest or weed control at 140 g/ha [2, 12]: 0 to 29% | pest or weed control at 35 g/ha [2, 13]: 45 to 59% | pest or weed control at 70 g/ha [2, 13]: 60 to 74% | pest or weed control at 140 g/ha [2, 13]: 60 to 74% | pest or weed control at 35 g/ha [2, 14]: 30 to 44% | pest or weed control at 70 g/ha [2, 14]: 60 to 74% | pest or weed control at 140 g/ha [2, 14]: 75 to 84%

melting point: 137 to 139 °C
Structure (SMILES): COc1c(N)nc(-c2ccc3sccc3c2)nc1C(=O)O [Compound 3.09]
pest or weed control at 35 g/ha [1, 3]: 0 to 29% | pest or weed control at 70 g/ha [1, 3]: 0 to 29% | pest or weed control at 140 g/ha [1, 3]: 45 to 59% | pest or weed control at 35 g/ha [1, 4]: 30 to 44% | pest or weed control at 70 g/ha [1, 4]: 75 to 84% | pest or weed control at 140 g/ha [1, 4]: 85 to 94% | pest or weed control at 35 g/ha [1, 5]: 45 to 59% | pest or weed control at 70 g/ha [1, 5]: 85 to 94% | pest or weed control at 140 g/ha [1, 5]: 95 to 100% | pest or weed control at 35 g/ha [1, 6]: 85 to 94% | pest or weed control at 70 g/ha [1, 6]: 85 to 94% | pest or weed control at 140 g/ha [1, 6]: 95 to 100% | pest or weed control at 35 g/ha [1, 7]: 95 to 100% | pest or weed control at 70 g/ha [1, 7]: 95 to 100% | pest or weed control at 140 g/ha [1, 7]: 95 to 100% | pest or weed control at 35 g/ha [1, 8]: 60 to 74% | pest or weed control at 70 g/ha [1, 8]: 75 to 84% | pest or weed control at 140 g/ha [1, 8]: 85 to 94% | pest or weed control at 35 g/ha [2, 9]: 0 to 29% | pest or weed control at 70 g/ha [2, 9]: 0 to 29% | pest or weed control at 140 g/ha [2, 9]: 0 to 29% | pest or weed control at 35 g/ha [2, 10]: 85 to 94% | pest or weed control at 70 g/ha [2, 10]: 85 to 94% | pest or weed control at 140 g/ha [2, 10]: 85 to 94% | pest or weed control at 35 g/ha [2, 11]: 0 to 29% | pest or weed control at 70 g/ha [2, 11]: 0 to 29% | pest or weed control at 140 g/ha [2, 11]: 0 to 29% | pest or weed control at 35 g/ha [2, 12]: 0 to 29% | pest or weed control at 70 g/ha [2, 12]: 0 to 29% | pest or weed control at 140 g/ha [2, 12]: 0 to 29% | pest or weed control at 35 g/ha [2, 13]: 60 to 74% | pest or weed control at 70 g/ha [2, 13]: 75 to 84% | pest or weed control at 140 g/ha [2, 13]: 85 to 94% | pest or weed control at 35 g/ha [2, 14]: 60 to 74% | pest or weed control at 70 g/ha [2, 14]: 75 to 84% | pest or weed control at 140 g/ha [2, 14]: 85 to 94%

Source: patent US20170050957A1, “4-AMINO-6-(HETEROCYCLIC)PICOLINATES AND 6-AMINO-2-(HETEROCYCLIC)PYRIMIDINE-4-CARBOXYLATES AND THEIR USE AS HERBICIDES” (Dow AgroSciences LLC, priority 2013, published 2017)
